Measured values published in ChEMBL document CHEMBL1155091, “Structure, antimicrobial activity and DNA-binding properties of the cobalt(II)-sparfloxacin complex” (2008).
≈ marks a conversion by molar mass, not a printed value.

Assays:
Escherichia coli = assay: Antimicrobial activity against Escherichia coli; assay type: functional
Staphylococcus aureus = assay: Antimicrobial activity against Staphylococcus aureus; assay type: functional
DNA = assay: Binding affinity to calf thymus DNA; assay type: nucleic-acid assay; settings: Bos taurus
Pseudomonas aeruginosa = assay: Antimicrobial activity against Pseudomonas aeruginosa; assay type: functional

MIC (Escherichia coli): 8 µg/mL (≈ 20.4 µM)
MIC (Staphylococcus aureus): 0.5 µg/mL (≈ 1.27 µM)
Kb (DNA): 17100 M⁻¹
MIC (Pseudomonas aeruginosa): 0.25 µg/mL (≈ 0.637 µM)
SMILES: C[C@@H]1CN(c2c(F)c(N)c3c(=O)c(C(=O)O)cn(C4CC4)c3c2F)C[C@H](C)N1 [SPARFLOXACIN]
